Test results published in PubChem BioAssay (NCI).
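Results reflect a 48-hour exposure of cells in 96-well plates to compound at five concentrations. GI50 is the concentration that inhibits growth by half. TGI is the concentration that stops growth completely.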

How the values were obtained:
Assay in all cases: NCI tumour cell line growth inhibition, 48 h
NCI/ADR-RES ovarian = system: NCI/ADR-RES ovarian
HCC-2998 colon = system: HCC-2998 colon
T-47D breast = system: T-47D breast
RXF 393 renal = system: RXF 393 renal
786-0 renal = system: 786-0 renal
IGROV1 ovarian = system: IGROV1 ovarian
LOX IMVI melanoma = system: LOX IMVI melanoma
OVCAR-8 ovarian = system: OVCAR-8 ovarian
HS 578T breast = system: HS 578T breast
SR leukemia = system: SR leukemia

SMILES | GI50 (NCI/ADR-RES ovarian) [µM] | TGI (NCI/ADR-RES ovarian) [µM] | GI50 (HCC-2998 colon) [µM] | TGI (HCC-2998 colon) [µM] | GI50 (T-47D breast) [µM] | TGI (T-47D breast) [µM] | TGI (RXF 393 renal) [µM] | TGI (786-0 renal) [µM] | TGI (IGROV1 ovarian) [µM] | TGI (LOX IMVI melanoma) [µM] | TGI (OVCAR-8 ovarian) [µM] | TGI (HS 578T breast) [µM] | TGI (SR leukemia) [µM] | GI50 (RXF 393 renal) [µM] | GI50 (IGROV1 ovarian) [µM] | GI50 (LOX IMVI melanoma) [µM] | GI50 (OVCAR-8 ovarian) [µM] | GI50 (SR leukemia) [µM] | GI50 (HS 578T breast) [µM]
COc1cc2c3c(n(C4CCNCC4)c(=O)c2cc1OC)-c1cc2c(cc1C3=O)OCO2 | 0.823 | 4 | 1.34 | 2.71 | 0.395 | 2.38 | – | – | – | – | – | – | – | – | – | – | – | – | –
CC1(C)N=C(N)N=C(N)N1c1cccc(OCc2cccc([N+](=O)[O-])c2)c1 | – | > 100 | – | – | – | > 89.1 | > 100 | > 100 | > 100 | > 100 | > 100 | > 100 | – | – | – | – | – | – | –
Nc1nncs1 | – | > 5000 | – | > 5000 | – | > 4800 | > 5000 | > 5000 | > 4680 | > 5000 | > 5000 | > 5000 | > 5000 | – | – | – | – | – | –
O=C(O)C(Br)Cc1ccc2c(c1)OCO2 (centres undefined) | – | – | – | > 100 | – | – | > 100 | – | > 100 | – | – | – | > 100 | – | – | – | – | – | –
CSc1sc(=S)sc1SC | – | 54.3 | – | > 100 | – | – | > 100 | – | > 100 | > 100 | > 100 | – | – | – | – | – | – | – | –
COc1cc2c3c(c4cc(OC)c(OC)cc4c2cc1OC)[C@H](O)[C@@H]1CCCN1C3 | – | 2.97 | – | – | – | 2.53 | 1.28 | – | – | 2.75 | – | – | 2.67 | – | – | – | – | – | –
COc1ccc(/C=C/[N+](=O)[O-])cc1 | – | > 100 | – | 2.73 | – | – | – | > 100 | 11.3 | – | 5.9 | 36.6 | 5.48 | – | – | – | – | – | –
O=C(O)CNCc1c2ccccc2[n+]([O-])c2ccccc12 | – | – | – | > 100 | – | – | – | > 100 | > 100 | > 100 | > 100 | – | – | – | – | – | – | – | –
COC(=O)c1nc2c3c(cccc3c1C(=O)OC)Nc1ccccc1-2 | – | > 100 | – | > 100 | – | – | > 100 | > 100 | > 100 | > 100 | – | > 100 | > 100 | – | – | – | – | – | –
COc1ccc(/C(Cl)=C(\C=O)c2ccc(Cl)c(Cl)c2)cc1OC | – | – | – | – | – | – | – | – | – | 13.6 | 57.7 | – | – | – | – | – | – | – | –
C#C[C@@]1(O)[C@@H](CO)O[C@@H](n2cc(F)c3c(N)ncnc32)[C@@H]1O | 0.306 | 11.3 | 0.6 | 2.82 | 0.214 | 0.77 | 2.99 | – | 1.42 | 1.11 | 3.69 | > 100 | > 100 | 0.727 | 0.324 | 0.279 | 0.256 | 0.185 | 3.97
S=C1NN=C2C(=C3CCCC4C5CCCCC5N2C34)N1 (centres undefined) | – | > 100 | – | – | – | > 100 | – | – | > 100 | > 100 | > 100 | > 100 | > 100 | – | – | – | – | – | –
C[C@H](CCC1=NCCN1)[C@H]1CC[C@H]2[C@@H]3CC[C@@H]4C[C@H](O)CC[C@]4(C)[C@H]3CC[C@]12C | – | 39.5 | – | 24.6 | – | > 51.8 | 55.2 | – | 25.4 | 4.76 | 37.2 | 48.2 | > 20 | – | – | – | – | – | –
O=C(O)Cc1[nH]cnc1C(=O)O | – | > 100 | – | > 100 | – | > 100 | > 100 | > 100 | > 100 | > 100 | > 100 | > 100 | – | – | – | – | – | – | –
